Results on 1 compound are retold here after publication PMC10334278 (Journal of Pharmaceutical Analysis, 2023).

The term Kd denotes the concentration at which binding is half-saturated.

This assay has as its target T1, Recombinant human GSS (Homo sapiens, UniProt P48637).
T1 sequence (P48637 2-474): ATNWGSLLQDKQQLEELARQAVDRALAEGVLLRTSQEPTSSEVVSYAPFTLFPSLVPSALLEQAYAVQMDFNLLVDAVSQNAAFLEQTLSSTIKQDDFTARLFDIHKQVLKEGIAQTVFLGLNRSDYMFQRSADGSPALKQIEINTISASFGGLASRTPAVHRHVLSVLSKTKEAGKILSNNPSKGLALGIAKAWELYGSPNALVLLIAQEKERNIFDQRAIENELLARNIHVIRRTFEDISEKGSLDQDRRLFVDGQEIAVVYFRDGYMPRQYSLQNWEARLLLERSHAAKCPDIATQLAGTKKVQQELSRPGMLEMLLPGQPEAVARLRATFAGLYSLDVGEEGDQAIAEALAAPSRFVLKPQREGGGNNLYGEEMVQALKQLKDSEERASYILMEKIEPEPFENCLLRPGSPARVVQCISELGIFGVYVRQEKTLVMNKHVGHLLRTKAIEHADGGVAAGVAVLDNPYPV
Put plainly: isothermal titration calorimetry. It is filed as binding. Background: In ITC the heat of successive injections is recorded.

Structures are written as SMILES.

Take `N[C@@H](CCC(=O)N[C@@H](CS)C(=O)O)C(=O)O` [γ-glutamylcysteine]: the Kd was 1090 nM.
